Test results reported in publication PMC12211128, “Safety, tolerability, pharmacokinetic and pharmacodynamic effects of the muscarinic M1 positive allosteric modulator VU0467319 for Alzheimer’s disease: a single ascending-dose study in healthy participants” (Alzheimer's Research & Therapy, 2025).

Test system: healthy participants
Experiment: Spatial selective attention test (SSAT)
Format: in vivo, human
Conditions: for SSAT Alerting Cost / SSAT Reorienting Cost: mean (SD)
Text: A version of the spatial selective attention test (SSAT; [33]) was used to assess the ability of participants to disengage attention and shift to a new target. Participants were asked to press a button corresponding to the side of the screen on which a stimulus appeared. The outcome variables of the task are the reaction time effects related to the ability of participants to anticipate a target when there is an ambiguous cue compared to there being no cue at all (Alerting effect: no cue– neutral cue); and the ability of participants to shift their attention between congruent and incongruent stimuli (Reorienting effect: invalid cue– valid cue).
Cognitive data: In this exploratory analysis, each outcome variable of the cognitive data was examined in a mixed model analysis of variance with one between-subjects factor of VU319 dose (0, 60, 120, 240, 400, 600 mg) and a within-subjects factor of testing session (pre-dose vs. post-dost administration). Post-hoc analysis compared each of the VU319 dose cohorts against the placebo group. Because the participants were healthy adults with normal cognitive function, we considered effects between no reductions in function to small improvement (d = 0.0–0.20) to be a positive result. For the food effect study, only the participants who received VU319 were examined due to the disproportionately small placebo group (n = 2). A within-subjects ANOVA including food condition (fasted/fed) and testing session (pre-dose vs. post-dose administration) was performed on each outcome variable.
A version of the spatial selective attention test (SSAT; (Posner, 1980)) was used to assess the ability of participants to disengage attention and shift to a new target. Participants were asked to press a button corresponding to the side of the screen on which a stimulus appeared. A central diamond was placed in between serving as a fixation point. Cues consisted of a 200-ms darkening of one side of the diamond depicting an arrowhead pointing to one of the peripheral boxes. The cue was followed by a target appearing for 100-ms in one of the boxes. To prevent temporal orienting, we used two randomly occurring cue–target intervals (400 and 700-ms). The targets were black diamonds that appeared in either the left or right boxes. In most trials, the cue validly predicted the target, however some cues were invalid, that is they pointed in the opposite direction of the target. On some trials, both sides of the diamond darkened, resulting in an ambiguous or neutral cue in which the participants were not able to prepare a specific hand to respond. […] The task consisted of 112 trials, with 64 trials (57%) with valid cues, and 16 trials (14.3%) each for the invalid, neutral or no cues conditions. The outcome variables of the task are the reaction time effects related to the ability of participants to anticipate a target when there is an ambiguous cue compared to there being no cue at all (Alerting effect: no cue – neutral cue); and the ability of participants to shift their attention between congruent and incongruent stimuli (Reorienting effect: invalid cue – valid cue).

[1] = Food effect study 120 mg, Fasting, Post-Drug
[2] = Food effect study 120 mg, Fasting, Pre-Drug
[3] = Food effect study 120 mg, Fed, Post-Drug
[4] = Food effect study 120 mg, Fed, Pre-Drug

Compound: Cn1cc2c(-c3cc(F)c(CN4Cc5ncccc5C4=O)c(F)c3)cccc2n1 [VU319]
- SSAT Alerting Cost [1]: 25.8 (59.97) ms
- SSAT Reorienting Cost [1]: 49.55 (35.68) ms
- SSAT Alerting Cost [2]: 60.4 (53.4) ms
- SSAT Reorienting Cost [2]: 52.15 (24.83) ms
- SSAT Alerting Cost [3]: 113.15 (181.48) ms
- SSAT Reorienting Cost [3]: 49.45 (32.65) ms
- SSAT Alerting Cost [4]: 54.1 (45.3) ms
- SSAT Reorienting Cost [4]: 56.75 (38.19) ms
- SSAT Alerting Cost (SAD study, 60 mg, Post-Drug): 59.58 (43) ms
- SSAT Reorienting Cost (SAD study, 60 mg, Post-Drug): 55.25 (34.49) ms
- SSAT Alerting Cost (SAD study, 60 mg, Pre-Drug): 53.67 (39.48) ms
- SSAT Reorienting Cost (SAD study, 60 mg, Pre-Drug): 43.58 (31.92) ms
- SSAT Alerting Cost (SAD study, 120 mg, Post-Drug): 44.25 (22.86) ms
- SSAT Reorienting Cost (SAD study, 120 mg, Post-Drug): 20.33 (32.95) ms
- SSAT Alerting Cost (SAD study, 120 mg, Pre-Drug): 62.75 (45) ms
- SSAT Reorienting Cost (SAD study, 120 mg, Pre-Drug): 10.17 (18.88) ms
- SSAT Alerting Cost (SAD study, 240 mg, Post-Drug): 58.83 (38.04) ms
- SSAT Reorienting Cost (SAD study, 240 mg, Post-Drug): 39.67 (33.04) ms
- SSAT Alerting Cost (SAD study, 240 mg, Pre-Drug): 34.83 (27.3) ms
- SSAT Reorienting Cost (SAD study, 240 mg, Pre-Drug): 27.92 (29.28) ms
- SSAT Alerting Cost (SAD study, 400 mg, Post-Drug): 44.92 (26.61) ms
- SSAT Reorienting Cost (SAD study, 400 mg, Post-Drug): 31.25 (18.61) ms
- SSAT Alerting Cost (SAD study, 400 mg, Pre-Drug): 59.75 (24.51) ms
- SSAT Reorienting Cost (SAD study, 400 mg, Pre-Drug): 22.17 (25) ms
- SSAT Alerting Cost (SAD study, 600 mg, Post-Drug): 19.5 (41.26) ms
- SSAT Reorienting Cost (SAD study, 600 mg, Post-Drug): 31.33 (15.75) ms
- SSAT Alerting Cost (SAD study, 600 mg, Pre-Drug): 26.08 (37.44) ms
- SSAT Reorienting Cost (SAD study, 600 mg, Pre-Drug): 20.92 (11.57) ms
- SSAT reorienting effect, effect of dose (SAD study, both p > 0.3): no effect of dose, nor a dose by time interaction
- SSAT, effect of food condition or time (food effect study, 120 mg): no effect of either food condition or time
